Results: article PMC2832868 (Journal of Medicinal Chemistry, 2010)
Read-outs that look alike come from different tables or passages of the source. Marks after values point to notes of the source that are not given here.

Assays:
[1] = Solubility in aqueous buffer; format: physicochemical
[2] = mice, cited from earlier work
Pharmacokinetics in mice = format: in vivo

solubility (S) at pH 7 [1] | Foral (Pharmacokinetics in mice; oral administration of same dose (10 mg kg^−1)) | drug levels following oral dosing (Pharmacokinetics in mice; oral dosing 10 mg/kg) | SMILES | Foral ([2]; oral administration of same dose (25 mg kg^−1)) [%] | Clp ([2]; plasma, IV dose 25 mg kg^−1) [L/h]
negligible solubility | – | – | NC1(Cc2ccc(Cl)cc2)CCN(c2ncnc3[nH]ccc23)CC1 [Compound 2, 4-(4-chlorobenzyl)-1-(7H-pyrrolo[2,3-d]pyrimidin-4-yl)piperidin-4-amine] | 8.5 | 0.33
– | <1 ^c % | no measurable drug levels | CC(C)(C)c1ccc(CC2(N)CCN(c3ncnc4[nH]ccc34)CC2)cc1 [Compound 10, 4-(4-tert-Butylbenzyl)-1-(7H-pyrrolo[2,3-d]pyrimidin-4-yl)piperidin-4-amine] | – | –
